Legend:
[1] = system: NHDF; experiment: Inhibitory activity against replication of HCMV in NHDF cells; Not active; format: functional, cell-based, Homo sapiens
[2] = system: NHDF; experiment: Cytotoxic activity against NHDF cell growth; Not active; format: functional, cell-based, Homo sapiens
[3] = system: MRC5; experiment: Inhibitory activity against cytopathic effect of HSV-2(E 194) in MRC-5 cells; Not active; format: functional, cell-based, Homo sapiens
[4] = system: MRC5; experiment: Inhibitory activity against cytopathic effect of HSV-2(E 194) in MRC-5 cells; format: functional, cell-based; conditions: Homo sapiens
[5] = system: NHDF; experiment: Inhibitory activity against replication of HCMV in NHDF cells; format: functional, cell-based; conditions: Homo sapiens
[6] = system: NHDF; experiment: Cytotoxic activity against NHDF cell growth; format: functional; conditions: Homo sapiens
[7] = Selectivity index is defined as ratio between IC50(NHDF) / IC50(HCMV); format: functional

SMILES | IC50 [1] | IC50 [2] | IC50 [3] | IC50 [4] [µM] | IC50 [5] [µM] | CC50 [6] [µM] | Selectivity ratio [7]
Nc1ccn([C@H]2CC=C(P(=O)(O)O)O[C@H]2CO)c(=O)n1 | Not Active | Not Active | Not Active |  |  |  | 
CC1OC(P(=O)(O)O)=CCC1n1cnc2c(N)ncnc21 (stereo not given) | Not Active | Not Active | Not Active |  |  |  | 
Nc1nc(O)c2ncn([C@@H]3CC=C(P(=O)(O)O)O[C@@H]3CO)c2n1 | Not Active | Not Active | Not Active |  |  |  | 
Nc1ncnc2c1ncn2[C@@H]1C=C[C@H](P(=O)(O)O)O[C@@H]1CO | Not Active | Not Active | Not Active |  |  |  | 
Cc1cn(C2CC=C(P(=O)(O)O)OC2C)c(=O)[nH]c1=O (stereo not given) | Not Active | Not Active | Not Active |  |  |  | 
Cc1cn(C2C=CC(P(=O)(O)O)OC2C)c(=O)[nH]c1=O (stereo not given) | Not Active | Not Active | Not Active |  |  |  | 
Nc1nc(O)c2ncn([C@@H]3C=C[C@H](P(=O)(O)O)O[C@@H]3CO)c2n1 |  |  |  | 275 | > 300 | > 1000 | 
Nc1ncnc2c1ncn2[C@@H]1C=C[C@@H](P(=O)(O)O)O[C@@H]1CO |  |  |  | 300 | > 300 | > 1000 | 
CC1OC(P(=O)(O)O)=CCC1n1ccc(N)nc1=O (stereo not given) |  |  |  | > 400 | 300 | > 1000 | > 3.3
Nc1ccn([C@@H]2C=C[C@H](P(=O)(O)O)O[C@@H]2CO)c(=O)n1 |  |  |  | 85 | 10 | > 1000 | > 100
Nc1ccn(C2CCC(P(=O)(O)O)OC2CO)c(=O)n1 (stereo not given) |  |  |  |  | 80 | > 1000 | > 12
Nc1ncnc2c1ncn2C1CC=C(P(=O)(O)O)OC1CO (stereo not given) |  |  |  |  | 90 | > 1000 | > 11
Nc1ccn([C@@H]2CC=C(P(=O)(O)O)O[C@@H]2CO)c(=O)n1 |  |  |  | 90 | 40 | > 1000 | > 25
Nc1ccn(C[C@@H](CO)OCP(=O)(O)O)c(=O)n1 [CIDOFOVIR] |  |  |  | 10 | 0.5 | 200 | 400
Cc1cn(C2CC=C(P(=O)(O)O)OC2CO)c(=O)[nH]c1=O (stereo not given) | Not Active | Not Active | Not Active |  |  |  | 
Cc1cn([C@@H]2C=C[C@@H](P(=O)(O)O)O[C@@H]2CO)c(=O)[nH]c1=O | Not Active | Not Active | Not Active |  |  |  | 
CC1OC(P(=O)(O)O)C=CC1n1ccc(N)nc1=O (stereo not given) |  |  |  | > 400 | 200 | > 1000 | > 5
Cc1cn([C@@H]2C=C[C@H](P(=O)(O)O)O[C@@H]2CO)c(=O)[nH]c1=O | Not Active | Not Active | Not Active |  |  |  | 
Nc1ccn([C@H]2C=C[C@@H](P(=O)(O)O)O[C@H]2CO)c(=O)n1 | Not Active | Not Active | Not Active |  |  |  | 
Nc1nc(O)c2ncn(C3C=CC(P(=O)(O)O)OC3CO)c2n1 (stereo not given) | Not Active | Not Active | Not Active |  |  |  | 
